Where a name gives a salt, the structure may show the parent alone.
Biological target: T1, human M1 receptor (hCHRM1) (Homo sapiens, UniProt P11229)
T1 construct: expressed in transfected cells
T1 sequence (P11229 1-460): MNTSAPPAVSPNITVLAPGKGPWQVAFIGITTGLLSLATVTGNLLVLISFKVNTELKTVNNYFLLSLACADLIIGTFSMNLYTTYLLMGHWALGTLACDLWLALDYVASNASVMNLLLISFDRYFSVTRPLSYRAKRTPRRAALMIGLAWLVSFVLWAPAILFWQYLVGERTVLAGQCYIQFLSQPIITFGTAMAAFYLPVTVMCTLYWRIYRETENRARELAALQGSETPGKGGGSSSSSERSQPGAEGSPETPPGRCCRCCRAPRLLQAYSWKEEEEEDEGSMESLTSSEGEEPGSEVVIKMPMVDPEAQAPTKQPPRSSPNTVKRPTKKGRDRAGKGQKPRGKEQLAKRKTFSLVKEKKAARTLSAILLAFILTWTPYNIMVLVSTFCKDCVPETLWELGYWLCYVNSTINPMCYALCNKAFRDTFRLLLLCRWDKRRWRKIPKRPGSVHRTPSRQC
Experiment: Measurement of M1 receptor positive allosteric modulator (M1PAM) activity, calcium fluorescence (FLIPRtetra)
Assay type: cell-based
Details: 10 μM test compound with acetylcholine at EC20 (final 0.6-0.8 nM); 100% = acetylcholine 1 μM, 0% = DMSO; CHO-K1 cells expressing hCHRM1
Method: Measurement of M1 Receptor Positive Allosteric Modulator (M1PAM) Activity
The activity of a test compound in the presence of acetylcholine at EC20 concentration (final concentration 0.6-0.8 nM), which affords an action corresponding to about 20% of the maximum activity, was measured as PAM activity. The method is as follows. CHO-K1 cells stably expressing a human M1 receptor (hCHRM1) were plated on a 384-well black clear bottom plate (BD Falcon) at 5,000 cells/well, and cultured in an incubator at 37° C., 5% CO2 for 1 day. The medium in the cell plate was removed, and assay buffer A containing calcium indicator (Recording medium (DOJINDO LABORATORIES), 0.1% BSA (Wako Pure Chemical Industries, Ltd.), 2.5 μg/mL Fluo-4 AM (DOJINDO LABORATORIES), 0.08% Pluronic F127 (DOJINDO LABORATORIES), 1.25 mM probenecid (DOJINDO LABORATORIES)) was added at 30 μL/well. The cells were left standing in the incubator at 37° C., 5% CO2 for 30 min, and further left standing at room temperature for 30 min. A test compound prepared by diluting with assay buffer B (HBSS (Invitrogen), 20 mM HEPES (Invitrogen), 0.1% BSA) containing 2.4-3.2 nM acetylcholine was added at 10 μL/well, and the fluorescence was measured by FLIPRtetra (Molecular Devices) for 1 min every for 1 second. With the definition that the amount of change in the fluorescence on addition of acetylcholine (final concentration 1 μM) is 100% and that on addition of DMSO instead of a test compound is 0%, the activity (%) of the test compound was calculated, and the inflection point in the concentration-dependent curve of the test compound was calculated as IP values.

Compound	activity (%) at 10 μM
Cc1cnc(C(=O)N[C@H]2CCC[C@@H]2O)cc1Cc1ccc(-c2ccn(C)n2)cc1F [Example 11, 4-(2-fluoro-4-(1-methyl-1H-pyrazol-3-yl)benzyl)-N-((1S,2S)-2-hydroxycyclopentyl)-5-methylpyridine-2-carboxamide]	98%
Cc1nc(C(=O)N[C@H]2COCC[C@@H]2O)cc(Cc2ccc(-c3ccn(C)n3)cc2)c1C#N [Example 115, 1,5-anhydro-2-(((5-cyano-6-methyl-4-(4-(1-methyl-1H-pyrazol-3-yl)benzyl)pyridin-2-yl)carbonyl)amino)-2,4-dideoxy-L-threo-pentitol]	111%
O=C(N[C@H]1COCC[C@@H]1O)c1cc(Cc2ccc(-n3cccn3)cc2)c(Cl)cn1 [Example 8, 1,5-anhydro-2-(((5-chloro-4-(4-(1H-pyrazol-1-yl)benzyl)pyridin-2-yl)carbonyl)amino)-2,4-dideoxy-L-threo-pentitol Hydrochloride]	92%
Cc1cnc(C(=O)N[C@H]2COCC[C@@H]2O)cc1Cc1ccc(-n2cccn2)cc1F [Example 17, 1,5-anhydro-2,4-dideoxy-2-(((4-(2-fluoro-4-(1H-pyrazol-1-yl)benzyl)-5-methylpyridin-2-yl)carbonyl)amino)-L-threo-pentitol]	98%
COc1cnc(C(=O)N[C@H]2CCCC[C@@H]2O)cc1Cc1ccc(-n2cccn2)cc1 [Example 63, N-((1S,2S)-2-Hydroxycyclohexyl)-5-methoxy-4-(4-(1H-pyrazol-1-yl)benzyl)pyridine-2-carboxamide]	94%
Cc1nc(C(=O)N[C@H]2CCCC[C@@H]2O)cc(Cc2ccc(-c3ccn(C)n3)cc2)c1Cl [Example 65, 5-chloro-N-((1S,2S)-2-hydroxycyclohexyl)-6-methyl-4-(4-(1-methyl-1H-pyrazol-3-yl)benzyl)pyridine-2-carboxamide]	106%
Cc1cnc(C(=O)N[C@H]2CCC[C@@H]2O)cc1Cc1ccc(-n2cccn2)nc1 [Example 34, N-((1S,2S)-2-hydroxycyclopentyl)-5-methyl-4-((6-(1H-pyrazol-1-yl)pyridin-3-yl)methyl)pyridine-2-carboxamide]	96%
N#Cc1cnc(C(=O)N[C@H]2CCCC[C@@H]2O)cc1Cc1ccc(-n2cccn2)cc1 [Example 67, 5-cyano-N-((1S,2S)-2-hydroxycyclohexyl)-4-(4-(1H-pyrazol-1-yl)benzyl)pyridine-2-carboxamide]	95%
O=C(N[C@H]1COCC[C@@H]1O)c1cc(Cc2ccc(-n3cccn3)cc2)c(OC(F)F)cn1 [Example 95, 1,5-anhydro-2,4-dideoxy-2-(((5-(difluoromethoxy)-4-(4-(1H-pyrazol-1-yl)benzyl)pyridin-2-yl)carbonyl)amino)-L-threo-pentitol]	99%
COc1ccc(Cc2cc(C(=O)N[C@H]3CCCC[C@@H]3O)nc(C)c2Cl)cn1 [Example 105, 5-chloro-N-((1S,2S)-2-hydroxycyclohexyl)-4-((6-methoxypyridin-3-yl)methyl)-6-methylpyridine-2-carboxamide]	100%
Cc1nc(C(=O)N[C@H]2CCCC[C@@H]2O)cc(Cc2ccc(Cl)nc2)c1C [Example 73, 4-((6-chloropyridin-3-yl)methyl)-N-((1S,2S)-2-hydroxycyclohexyl)-5,6-dimethylpyridine-2-carboxamide]	94%
Cc1nc(C(=O)N[C@H]2CCCC[C@@H]2O)cc(Cc2ccc(-c3ccn(C)n3)cc2)c1C#N [Example 114, 5-cyano-N-((1S,2S)-2-hydroxycyclohexyl)-6-methyl-4-(4-(1-methyl-1H-pyrazol-3-yl)benzyl)pyridine-2-carboxamide]	94%
Cc1nc(C(=O)N[C@H]2CCC[C@@H]2O)cc(Cc2ccc(Cl)nc2)c1C [Example 116, 4-((6-chloropyridin-3-yl)methyl)-N-((1S,2S)-2-hydroxycyclopentyl)-5,6-dimethylpyridine-2-carboxamide]	104%
Cc1cnc(C(=O)NC2CC(F)(F)CCC2O)cc1Cc1ccc(-c2ccn(C)n2)cc1 (stereo not shown) [Example 25, N-(5,5-difluoro-2-hydroxycyclohexyl)-5-methyl-4-(4-(1-methyl-1H-pyrazol-3-yl)benzyl)pyridine-2-carboxamide]	85%
Cc1nc(C(=O)N[C@H]2CCC[C@@H]2O)cc(Cc2ccc(-c3ccn(C)n3)cc2)c1Cl [Example 97, 5-chloro-N-((1S,2S)-2-hydroxycyclopentyl)-6-methyl-4-(4-(1-methyl-1H-pyrazol-3-yl)benzyl)pyridine-2-carboxamide]	93%
Cc1cnc(C(=O)N[C@H]2CCCC[C@@H]2O)cc1Cc1ccc(-c2cn(C)nc2C)cc1 [Example 15, 4-(4-(1,3-dimethyl-1H-pyrazol-4-yl)benzyl)-N-((1S,2S)-2-hydroxycyclohexyl)-5-methylpyridine-2-carboxamide]	107%
Cc1cnc(C(=O)NC2CCOCC2)cc1Cc1ccc(-c2ccn(C)n2)cc1 [Example 27, 5-methyl-4-(4-(1-methyl-1H-pyrazol-3-yl)benzyl)-N-(tetrahydro-2H-pyran-4-yl)pyridine-2-carboxamide]	88%
Cc1cnc(C(=O)N[C@H]2CCCC[C@@H]2O)cc1Cc1ccc(-c2ccn(C)n2)cc1 [Example 9, N-((1S,2S)-2-hydroxycyclohexyl)-5-methyl-4-(4-(1-methyl-1H-pyrazol-3-yl)benzyl)pyridine-2-carboxamide]	91%
Cc1nc(C(=O)N[C@H]2CCCC[C@@H]2O)cc(Cc2ccc(-c3ccn(C)n3)nc2)c1Cl [Example 107, 5-chloro-N-((1S,2S)-2-hydroxycyclohexyl)-6-methyl-4-((6-(1-methyl-1H-pyrazol-3-yl)pyridin-3-yl)methyl)pyridine-2-carboxamide]	101%
COc1cnc(C(=O)N[C@H]2CCCC[C@@H]2O)cc1Cc1ccc(-c2cnn(C)c2)nc1 (relative stereo) [Example 58, N-(trans-2-hydroxycyclohexyl)-5-methoxy-4-((6-(1-methyl-1H-pyrazol-4-yl)pyridin-3-yl)methyl)pyridine-2-carboxamide]	89%
COc1nc(C(=O)N[C@H]2CCC[C@@H]2O)cc(Cc2ccc(-c3ccn(C)n3)cc2)c1C [Example 90, N-((1S,2S)-2-hydroxycyclopentyl)-6-methoxy-5-methyl-4-(4-(1-methyl-1H-pyrazol-3-yl)benzyl)pyridine-2-carboxamide]	106%
Cc1nc(C(=O)N[C@H]2COCC[C@@H]2O)cc(Cc2ccc(Cl)nc2)c1C [Example 85, 1,5-anhydro-2-(((4-((6-chloropyridin-3-yl)methyl)-5,6-dimethylpyridin-2-yl)carbonyl)amino)-2,4-dideoxy-L-threo-pentitol]	99%
Cc1cnc(C(=O)N[C@H]2CCC[C@@H]2O)cc1Cc1ccc(-n2cccn2)cc1F [Example 13, 4-(2-fluoro-4-(1H-pyrazol-1-yl)benzyl)-N-((1S,2S)-2-hydroxycyclopentyl)-5-methylpyridine-2-carboxamide]	92%
COc1cnc(C(=O)N[C@H]2CCCC[C@@H]2O)cc1Cc1ccc(-c2cnn(C)c2)cc1 [Example 64, N-((1S,2S)-2-hydroxycyclohexyl)-5-methoxy-4-(4-(1-methyl-1H-pyrazol-4-yl)benzyl)pyridine-2-carboxamide]	104%
Cc1nc(C(=O)N[C@H]2CCCC[C@@H]2O)cc(Cc2ccc(C#N)cc2)c1Cl [Example 66, 5-chloro-4-(4-cyanobenzyl)-N-((1S,2S)-2-hydroxycyclohexyl)-6-methylpyridine-2-carboxamide]	105%

Source: US10214508B2, “Nitrogen-containing heterocyclic compound” (Takeda Pharmaceutical Company Limited, priority 2014, dated 2019)
